This series can be described thus: gradient 5% acetonitrile 3 min, to 50% in 2 min, to 85% in 15 min, held 3 min, 100 µL/min. As to conditions: column: Zorbax Extend-C18 2.1 x 50 mm; eluents: water / acetonitrile, 0.1% formic acid. The gist of the method:
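Retention times come from adduct peaks that were picked computationally and then checked by hand. The standards, pure and pooled in mixtures of ~100 molecules, were run on a Zorbax Extend-C18 column (2.1 × 50 mm, 1.8 μm) at 100 μL/min with water and acetonitrile, each with 0.1% formic acid. Detection was by quadrupole time-of-flight mass spectrometry in positive and negative ionization mode, with a dead volume of 40 μL and a dwell volume of 900 μL.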
Take `CCn1c(CCNC(=O)c2ccc(OC)c(F)c2)nc2cccnc21`: the RP-LC retention time came to 622 s.
Next, `O=C(CN1C(=O)CCCc2cc(S(=O)(=O)N3CCCCC3)ccc21)Nc1ccc(Cl)cc1F`: 995 s; `Cc1ccc(-c2csc(-n3nc(C)c(CC(=O)Nc4cc(Cl)ccc4C)c3C)n2)cc1`: 982 s.
Compound `COc1cccc(CNC(=O)Nc2cc3c(cc2N2CCOCC2)n(C)c(=O)n3C)c1` returned an RP-LC retention time of 723 s.
As to `c1cc2nnc(C3CCC3)n2nc1N1CCCC1`, the RP-LC retention time came to 920 s.
To `CNC(=O)CCc1cc2cc(C)ccc2[nH]c1=O` belongs 623 s; to `CCC(C)(C)NC(=O)C1CCCN(S(=O)(=O)c2c[nH]c(C(=O)N3CCCCCC3)c2)C1` (stereo not drawn), 871 s.
To `CCOc1ccc(S(=O)(=O)N2CCCC(C(=O)Nc3ccc(OC)cc3OC)C2)cc1C` (stereo not drawn) belongs 1070 s.
Next, `O=C(NC1CC1)C1CCN(c2cnn(Cc3ccccc3)c(=O)c2)CC1`: 681 s; `O=C(Nc1ccccc1)N1CC(Oc2ccc(-c3nc(-c4ccccc4)no3)cc2)C1`: 1150 s.
Compound `CCCN1C(=O)COc2ccc(-c3csc(NC(=O)c4ccc(Cl)cc4)n3)cc21` registered an RP-LC retention time of 1140 s.
Next, `COc1ccc(OC)c(NC(=O)N2CCC(N3CCN(Cc4ccccc4)C3=O)CC2)c1`: 828 s.
Next, `Cc1cc(C(=O)N2CCCCC2)c2c(=O)n(CC(=O)Nc3ccc(F)cc3F)c(=O)n(C)c2n1`: 816 s; `O=C(COCc1nnc(C(=O)Nc2cccc(Cl)c2)s1)NCCc1c[nH]c2ccccc12`: 930 s; `O=C(CSc1nnc(-c2ccco2)n1-n1cccc1)Nc1cccc(C(F)(F)F)c1`: 897 s.
Next, `Cc1ccc(S(=O)(=O)N2CCCCC2)cc1-c1nnc(-c2ccccc2Cl)o1`: 1160 s.
The compound `Cc1cc2nn(CC(=O)Nc3cccc(Cl)c3)c(=O)n2c(Nc2ccccc2C)n1` showed an RP-LC retention time of 1100 s.
Next, `Cc1ccc(C)c(NC(=O)N2C[C@@H](F)C[C@H]2C(=O)N2CCCCC2)c1`: 730 s; `O=C1CCC(c2ccccc2)=NN1c1nc2ccccc2s1`: 884 s; `Cc1ccc(-n2cc3c(N4CCCC(C(=O)NCc5ccc(F)cc5F)C4)ncnc3n2)cc1` (stereo not drawn): 729 s.
`COC(=O)c1cc2c(=O)n(-c3cccc(Cl)c3Cl)ccc2nc1C` yielded an RP-LC retention time of 915 s.
To `COc1cccc(N2CCN(c3ccc(S(=O)(=O)C(C)C)nn3)CC2)c1` belongs 847 s.
The compound `O=C(c1ccc2c(c1)OCO2)N1CCC2(CC1)NC(=O)N(Cc1cccc(Cl)c1)C2=O` registered an RP-LC retention time of 840 s.
The compound `C[C@H](NC(=O)/C(C#N)=C/c1cccc(Br)n1)c1ccccc1` had an RP-LC retention time of 934 s.
Next, `COc1ccccc1NC(=O)Cn1nc2c(N(C)C3CCCCC3)nccn2c1=O`: 778 s.
Next, `Cc1cc(Cl)ccc1OCC(=O)N1CCCCC1c1nncn1C` (stereo not drawn): 767 s; `COc1ccccc1NC(=O)N1C[C@@H](F)C[C@H]1C(=O)N1CCCCC1`: 677 s.
To `CN(C)C(=O)c1csc(S(=O)(=O)N2CCC(C(=O)NC3CC3)CC2)c1` belongs 626 s; to `CCn1c(=O)c(C)nc2cc(-c3noc(-c4cccc(C)c4)n3)ccc21`, 1190 s; to `Cc1nc2nc(-c3ccc(C(C)(C)C)cc3)nn2c(C)c1CC(=O)N1CCCCC1`, 1040 s.
`O=C(c1n[nH]c2ccccc12)N1CCCC1c1nc(-c2ccc(F)cc2F)no1` (stereo not drawn) registered an RP-LC retention time of 930 s.
To `CC(C)c1ccc(S(=O)(=O)N2CCc3c(c(-c4nnc(-c5ccccc5F)o4)nn3C)C2)cc1` belongs 1070 s; to `Cc1nnc(N2CCCC(C(=O)NCc3ccc4c(c3)OCO4)C2)c2nn(-c3ccccc3)c(C)c12` (stereo not drawn), 698 s.
Next, `Cc1ccc(Nc2c(-c3cccc(O)c3)nc3cnccn23)c(Br)c1`: 843 s.
As to `N#Cc1ccccc1NC(=O)C(=O)NCc1ccccn1`, the RP-LC retention time was 572 s.
Take `COC(=O)c1sc2cccc(F)c2c1S(=O)(=O)N1CCN(c2ccccn2)CC1`: the RP-LC retention time is 725 s.
Next, `CC1COC2(CCN(c3nc(=O)c4cc(C(F)(F)F)cc([N+](=O)[O-])c4s3)CC2)O1` (stereo not drawn): 1000 s; `Cc1cc(C)cc(NC(=O)Cc2nnc(-c3ccc4ncccc4c3)o2)c1`: 786 s; `COC(=O)C(C)NC(=O)NCc1cccn1Cc1cccc(C)c1` (stereo not drawn): 827 s.
For `CCOc1cc(S(=O)(=O)NCc2ccccn2)ccc1Br`, the RP-LC retention time turned out to be 666 s.
Next, `COC(=O)c1ccc(-c2nc3cnccn3c2Nc2ccccc2OC)cc1`: 893 s; `CC(C)CCNC(=O)c1ccc(Oc2nccnc2N2CCC(C)CC2)cc1`: 1170 s; `Cc1cccc(Nc2nc(-c3ccc([N+](=O)[O-])cc3)cs2)c1`: 1190 s.
To `CCCCNC(=O)C(C)Sc1nc2nc(C)cc(C)n2n1` (stereo not drawn) belongs 679 s.
To `Fc1cccc(CN2CCC(N3CC4(CCCCC4)C3c3ccncc3)CC2)c1` (stereo not drawn) belongs 560 s.
Compound `Cc1ccc(-c2noc(-c3cccnc3N3CCN(Cc4ccccc4)CC3)n2)cc1` returned an RP-LC retention time of 823 s.
To `CCC(C)(C)NC(=O)C1CCCN1S(=O)(=O)c1cc2c(cc1C)NC(=O)CO2` (stereo not drawn) belongs 745 s.
To `Cn1nc(-c2nnc(-c3ccc(F)cc3)o2)c2c1CCN(C(=O)Nc1ccccc1Cl)C2` belongs 892 s; to `CN1C(=O)C2CCCCN2c2ccc(C(=O)NCCN3CCCC3)cc21` (stereo not drawn), 981 s.
Next, `O=C(NC1CCCCCC1)c1csc(-c2ccc(N3CCOCC3)nc2)n1`: 991 s.
As to `COc1ccc(NC(=O)N2[C@H]3CC[C@@H]2c2cnc(-c4ccccc4)nc2C3)c(OC)c1`, the RP-LC retention time was determined as 894 s.
To `Cc1nn(-c2ccc(C(=O)NCCCN3CCCC3=O)cc2)c2c1C(=O)CC(C)(C)C2` belongs 670 s; to `COc1ccc(CNC(=O)CN2C(=O)NC3(CCC(C(C)(C)C)CC3)C2=O)cc1OC` (stereo not drawn), 863 s; to `CNC(=O)N1CCCN(C)c2ccccc21`, 484 s.
Next, `Cc1ccc2c(=O)c3c([nH]c2c1C)CCN(CC(=O)Nc1ccccc1F)C3`: 612 s; `Cc1cc(C)nc(N2CCN(C)CC2)n1`: 556 s; `CCNC(=O)C1CCCN(S(=O)(=O)c2c[nH]c(C(=O)N3CCCCCC3)c2)C1` (stereo not drawn): 699 s.
Next, `O=C(NC1CCN(c2cc(-c3ccc(Cl)cc3)[nH]n2)C1)c1ccncc1` (stereo not drawn): 643 s; `O=C(NCc1ccc(N2CCCCC2)cc1)c1cccc2c1CCN2C(=O)C1CC1`: 634 s.
In turn, `O=C(NC1CCCCC1)c1nc(-c2ccc(N3CCCC3)cc2)no1` returned an RP-LC retention time of 1160 s.
As for `COc1ccc(CC(=O)N2CCCC2c2cc(C(C)C)on2)cc1` (stereo not drawn), the RP-LC retention time came out at 868 s.
To `COc1ccccc1-c1noc(C2CCCN2C(=O)Nc2ccc3c(c2)OCO3)n1` (stereo not drawn) belongs 812 s.
Next, `O=C(Nc1ccc2c(c1)OCCO2)N1c2ccccc2CC1c1nc(C2CC2)no1` (stereo not drawn): 966 s; `CCCCCCCCCC(=O)NC(CN1CCOCC1)[C@H](O)c1ccccc1` (stereo partly drawn): 888 s; `Cc1scc2nc(C3CCC3)nc(N3CCC(C(=O)N4CCN(c5ccc(F)cc5)CC4)CC3)c12`: 810 s.
To `Cn1nc(C(=O)Nc2ccc3c(c2)C(=O)N2CCC[C@H]2C(=O)N3)c2ccccc21` belongs 714 s.
The compound `COc1ccccc1N1CCN(c2ccc3cc(S(=O)(=O)N4CCCCC4)ccc3n2)CC1` yielded an RP-LC retention time of 987 s.
`O=C(Nc1cccnc1Cl)C1CCCN(c2ncnc3c2nc2n3CCCCC2)C1` (stereo not drawn) had an RP-LC retention time of 717 s.
To `Cc1ccc(-c2ccc3nn(Cc4nc(-c5ccc(OC(F)(F)F)cc5)no4)c(=O)n3n2)cc1` belongs 1120 s; to `CCCCCN1C(=O)C2(NCCc3c2[nH]c2ccc(C)cc32)c2ccccc21` (stereo not drawn), 792 s; to `CCCNC(=O)CCc1nc2ccccc2n(CC(=O)Nc2ccc(OC)c(OC)c2)c1=O`, 1110 s.
Next, `O=c1c2ccccc2ncn1Cc1noc(Cc2ccc(Cl)cc2)n1`: 872 s; `CCOc1ccc(C2=NC3(CCN(C)CC3)NC(c3ccccc3O)C2)cc1` (stereo not drawn): 604 s; `CCN(CC)CCCNc1ncnc2c1cnn2-c1ccc(C)c(C)c1`: 663 s.
To `CCN(CC)CCNC(C(=O)OCCC(C)C)c1ccccc1` (stereo not drawn) belongs 817 s; to `COc1cc(N2CCC(N3CCN(C)CC3)CC2)ccc1Nc1ncc(Cl)c(Nc2ccccc2S(=O)(=O)C(C)C)n1`, 694 s.
`Fc1ccc(-c2noc(-c3ccc(N4CCCCC4)nc3)n2)cc1` returned an RP-LC retention time of 1360 s.
Regarding `CCOc1cccc(-c2noc(Cn3c(=O)n(-c4cccc(C)c4)c(=O)c4sccc43)n2)c1`, the RP-LC retention time came out at 1060 s.

Values taken from the METLIN SMRT retention time set (Domingo-Almenara et al. 2019).
